Results reported in publication PMC9027176 (Viruses, 2022).
Read-outs that look alike come from different tables or passages of the source. Where no end group is shown, it is not given here.

Target: KsBcl-2 (Human herpesvirus 8 type P, UniProt F5HGJ3, V117A)
Experiment: biochemical
Type: binding, Kaposi's sarcoma-associated herpesvirus

Chain of KsBcl-2 (F5HGJ3 1-146 V117A): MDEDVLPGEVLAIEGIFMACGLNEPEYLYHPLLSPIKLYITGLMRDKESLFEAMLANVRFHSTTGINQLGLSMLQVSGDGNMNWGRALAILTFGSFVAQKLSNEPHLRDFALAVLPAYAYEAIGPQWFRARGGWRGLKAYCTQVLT

Molecule | IC50 (SEM) [nM] | IC50 [nM]
CC[C@H](C)[C@H](NC(=O)[C@H](CC(N)=O)NC(=O)[C@H](CCCNC(=N)N)NC(=O)[C@@H](NC(=O)[C@@H](NC(=O)[C@H](CC(=O)O)NC(=O)[C@H](CCC(=O)O)NC(=O)[C@H](CCC(N)=O)NC(=O)[C@H](CO)NC(=O)[C@H](CCC(=O)O)NC(=O)[C@@H](N)CO)[C@@H](C)CC)[C@@H](C)CC)C(=O)N[C@@H](C)C(=O)N[C@@H](CCCNC(=N)N)C(=O)N[C@@H](Cc1c[nH]cn1)C(=O)N[C@@H](CC(C)C)C(=O)N[C@@H](C)C(=O)N[C@@H](CCC(N)=O)C(=O)N[C@H](C(=O)NCC(=O)N[C@@H](CC(=O)O)C(=O)N[C@@H](CO)C(=O)N[C@@H](CCSC)C(=O)N[C@@H](CC(=O)O)C(=O)N[C@@H](CCCNC(=N)N)C(=O)N[C@@H](CO)C(=O)N[C@H](C(=O)N1CCC[C@H]1C(=O)N1CCC[C@H]1C(=O)NCC(=O)N[C@@H](CC(C)C)C(=O)N[C@H](C(=O)N[C@@H](CC(N)=O)C(=O)NCC(=O)N[C@@H](CC(C)C)C(=O)O)C(C)C)[C@@H](C)CC)C(C)C [Bid] | 20 ± 9 | 
CC[C@H](C)[C@H](NC(=O)[C@H](CS)NC(=O)[C@H](C)NC(=O)[C@H](CC(C)C)NC(=O)[C@H](CCCNC(=N)N)NC(=O)[C@H](CC(C)C)NC(=O)[C@H](C)NC(=O)[C@H](CC(C)C)NC(=O)[C@H](C)NC(=O)[C@H](CC(=O)O)NC(=O)[C@H](CO)NC(=O)CNC(=O)[C@H](CCC(=O)O)NC(=O)[C@@H](N)CCSC)C(=O)NCC(=O)N[C@@H](CC(=O)O)C(=O)N[C@@H](CCC(=O)O)C(=O)N[C@@H](CCSC)C(=O)N[C@@H](CC(=O)O)C(=O)N[C@H](C(=O)N[C@@H](CO)C(=O)N[C@@H](CC(C)C)C(=O)N[C@@H](CCCNC(=N)N)C(=O)N[C@@H](C)C(=O)N1CCC[C@H]1C(=O)O)C(C)C [Bik] | 64 ± 4 | 
CC[C@H](C)[C@H](NC(=O)[C@H](CCC(=O)O)NC(=O)[C@H](CCCN=C(N)N)NC(=O)[C@H](C)NC(=O)[C@H](Cc1c[nH]c2ccccc12)NC(=O)[C@H](CCC(N)=O)NC(=O)[C@H](CCC(=O)O)NC(=O)[C@@H](N)CCC(=O)O)C(=O)NCC(=O)N[C@@H](C)C(=O)N[C@@H](CCC(N)=O)C(=O)N[C@@H](CC(C)C)C(=O)N[C@@H](CCCN=C(N)N)C(=O)N[C@@H](CCCN=C(N)N)C(=O)N[C@@H](CCSC)C(=O)N[C@@H](C)C(=O)N[C@@H](CC(=O)O)C(=O)N[C@@H](CC(=O)O)C(=O)N[C@@H](CC(C)C)C(=O)N[C@@H](CC(N)=O)C(=O)N[C@@H](C)C(=O)N[C@@H](CCC(N)=O)C(=O)N[C@@H](Cc1ccc(O)cc1)C(=O)N[C@@H](CCC(=O)O)C(=O)N[C@@H](CCCN=C(N)N)C(=O)N[C@@H](CCCN=C(N)N)C(=O)O [Puma] | 26 ± 9 | 
PAELEVECATQLRRFGDKLNFRQKLL [Noxa] |  | 220
PSSTMGQVGRQLAIIGDDINRRYDSE [Bak] | 8 | 
VPGRLAEVCAVLLRLGDELEMIRPSV [Bok] | 198 ± 13 | 
VPQDASTKKLSECLKRIGDELDSNMELQ [Bax] | 16 | 
